Data reported in ChEMBL document CHEMBL1201862, “PubChem BioAssay data set” (2004).
Active and inactive are the calls of the source. No stated cut-off is given here; in the data, actives have a measured IC50 and inactives only a lower limit.

Target: Envelope glycoprotein gp160 (Human immunodeficiency virus 1, UniProt Q6QLK5)
Assay: cell-free HIV fusion peptide-binding blockers – biochemical, uHTS, fluorescence dequenching, […] (AID 1986)

Sequence of Envelope glycoprotein gp160 (Q6QLK5 whole entry, the tested form may be a part): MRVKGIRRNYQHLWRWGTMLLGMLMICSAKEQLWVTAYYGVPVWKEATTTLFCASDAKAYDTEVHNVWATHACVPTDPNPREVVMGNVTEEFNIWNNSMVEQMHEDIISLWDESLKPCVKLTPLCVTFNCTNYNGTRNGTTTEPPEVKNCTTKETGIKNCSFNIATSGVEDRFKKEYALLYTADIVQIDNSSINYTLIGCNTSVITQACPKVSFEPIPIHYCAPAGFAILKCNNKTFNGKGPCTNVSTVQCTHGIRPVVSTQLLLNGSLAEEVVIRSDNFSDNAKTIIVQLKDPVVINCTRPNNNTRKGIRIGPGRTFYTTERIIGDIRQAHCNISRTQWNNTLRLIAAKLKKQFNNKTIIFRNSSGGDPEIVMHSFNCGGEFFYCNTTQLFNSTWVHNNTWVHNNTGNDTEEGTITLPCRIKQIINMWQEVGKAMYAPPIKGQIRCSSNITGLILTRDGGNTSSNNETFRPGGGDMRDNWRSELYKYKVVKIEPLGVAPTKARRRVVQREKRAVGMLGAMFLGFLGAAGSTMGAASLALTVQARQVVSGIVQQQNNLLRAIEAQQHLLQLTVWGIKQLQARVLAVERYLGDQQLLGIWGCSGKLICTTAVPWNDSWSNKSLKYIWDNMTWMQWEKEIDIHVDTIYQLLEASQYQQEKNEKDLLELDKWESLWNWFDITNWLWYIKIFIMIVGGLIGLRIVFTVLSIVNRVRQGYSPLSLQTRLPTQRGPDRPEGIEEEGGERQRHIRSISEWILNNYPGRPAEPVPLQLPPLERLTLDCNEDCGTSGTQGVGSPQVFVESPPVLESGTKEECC

**Q.** For Cc1cc(C)c2nc(N3C(=O)C(O)=C(C(=O)c4ccco4)C3c3ccco3)sc2c1 (stereo unspecified), which IC50 is on record?
**A.** 12.4 µM (active)
